The source of these data is patent US20190119200A1, “TERTIARY AMIDES AND METHOD OF USE” (AbbVie Inc., priority 2016, published 2019).

The test system of assay [1] is UUO mice (kidney fibrosis). As to the kind of experiment: Mouse unilateral ureteral obstruction (UUO) kidney fibrosis model. It counts as in vivo. Particulars: male CD-1 mice, 30 mg/kg po twice daily D-1 to D6, compared to vehicle treated UUO group. Here is the method:
All animal handling and experimental protocols were approved by AbbVie's Institutional Animal Care and Use Committee (IACUC) and were conducted in accordance with the ethical principles for pain-related animal research of the American Pain Society. Male CD-1 mice (28-30 g, Charles River) were group housed 10 per cage, housed in a temperature controlled room with a 12/12-hour day/night cycle, with food (2018 Tekland Global 18% protein rodent diet, Harlan®) and water available ad libitum. Mice underwent either complete unilateral ureter obstruction (UUO) or sham surgery to the left kidney. Briefly, animals were anesthetized with isoflurane, and the left ureter was visualized via a flank incision. Using 6-0 silk sutures, the ureter was tied off at two points near the renal pelvis and then completely cut between ligations (ligation step omitted for sham operated animals). The abdominal muscle was sutured and the skin closed using standard wound clips. Test compound or vehicle was delivered twice daily (30 mg/kg, po) via oral gavage, starting on the day before surgery (D-1) and continuing through day 6 after surgery (D6), at which time animals were sacrificed and kidney tissues collected. […] Statistical significance was determined by using a one-way analysis of variance (ANOVA) followed by a Bonferroni post-hoc test and was conducted using GraphPad prism.

Assay [2] concerns LPA-induced MCP-1 in NRK-49F cells. As to the kind of experiment: LPA-induced MCP-1 AlphaLISA assay. The format is cell-based. The settings on record: Rattus norvegicus, final LPA 10 μM, 7 hours. In short, it runs like this: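 NRK-49F rat fibroblasts, serum-starved overnight, pretreated with compound for 30 min at 37 °C (1% DMSO final), then stimulated with 10 μM LPA final. MCP-1 in the supernatant was measured by mouse/rat CCL2 AlphaLISA. IC50 values came from four-parameter logistic fits of the ratio data.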
For orientation: Alpha assays give light when donor and acceptor beads are brought close together.

For orientation: IC50 means the concentration at which inhibition is half-maximal. The low end stands for inhibition by little substance, the high end for a need for much substance. Turning to `COc1cc(OC)cc(C(=O)N(CCCCC(=O)O)CCCc2ccccc2)c1` [Example 7, 5-[(3,5-dimethoxybenzoyl)(3-phenylpropyl)amino]pentanoic Acid], in assay [1], the “reduction in Col1a1 expression” value was −46% and the “reduction in tubulointerstitial fibrosis as measured by PSR” value is on record as −53%. Moreover, the IC50 in assay [2] worked out at 2630 nM. Besides, the Emax in assay [2] (read-out: Maximum Inhibition) stood at 71%.
